PubChem BioAssay (NCI)
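Exposure lasted 48 hours, with cells grown in 96-well plates and compounds tested at five concentrations. Here, GI50 denotes the concentration required for 50% inhibition of growth. TGI is the concentration that stops growth completely.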

Assays:
Experiment in all cases: NCI tumour cell line growth inhibition, 48 h
[1] = test system: HT29 colon
[2] = test system: U251 CNS
[3] = test system: TK-10 renal
[4] = test system: NCI-H522 lung
[5] = test system: SNB-75 CNS
[6] = test system: SW-620 colon
[7] = test system: OVCAR-8 ovarian
[8] = test system: A549 NSCLC
[9] = test system: A498 renal
[10] = test system: SK-MEL-5 melanoma
[11] = test system: DU-145 prostate

Row | SMILES | TGI [1] [µM] | TGI [2] [µM] | TGI [3] [µM] | TGI [4] [µM] | TGI [5] [µM] | TGI [6] [µM] | TGI [7] [µM] | TGI [8] [µM] | TGI [9] [µM] | TGI [10] [µM] | TGI [11] [µM] | GI50 [1] [µM] | GI50 [3] [µM] | GI50 [11] [µM] | GI50 [4] [µM] | GI50 [7] [µM] | GI50 [8] [µM] | GI50 [10] [µM]
1 | CCCCC1(OC(=O)CCC(=O)O)CCC2(CCC(C)C(C/C=C(C)/C=C/C(O)C(C)/C=C/C(=O)O)O2)OC1CC/C(C)=C/C(=O)O (stereo not drawn) | 43.6 | 15.6 | 58.5 | 7.72 | 6.74 | 39.8 | 7.67 | 36.6 | 12.6 | 3.14 |  |  |  |  |  |  |  | 
2 | C=C(CO)[C@H]1CC/C(C)=C/CC/C(C)=C/C/C=C(\C)[C@H](O)C1 | 35 | 36 | 47.7 | 32.1 | 78.9 | 40.1 | 35.3 | > 100 |  | 54.1 | > 100 |  |  |  |  |  |  | 
3 | Cc1ccc2nc(CN3CCCCC3)cc(=O)n2c1 | > 100 | > 100 | > 100 | > 100 | > 100 | > 100 | > 100 | > 100 |  |  | > 100 |  |  |  |  |  |  | 
4 | O=C(/C=C\c1cccc2ccccc12)c1ccc(Br)cc1 | 35.3 | 29.6 | > 100 | 35.3 | 56.3 | 24.4 | 33 | > 100 | > 100 | 38.7 |  |  |  |  |  |  |  | 
5 | N=c1oc2cc(O)c(O)cc2cc1C(N)=O | > 100 | > 100 | > 100 | > 100 | 96.3 | > 100 | > 100 | > 100 | > 100 | > 100 |  |  |  |  |  |  |  | 
6 | CCOC(=O)c1c(-c2ccc(Cl)cc2)c(C#N)c(=S)n(C2OC(CO)C(O)C(O)C2O)c1-c1ccccc1 (stereo not drawn) | 36.2 | 32 | 84 |  | 87.3 | 46.7 |  | > 100 |  | 29.3 | > 100 |  |  |  |  |  |  | 
7 | CN(C)c1cccc(-c2cc(=O)c3cc4c(cc3[nH]2)OCO4)c1 | > 100 | 3.95 | > 100 | 0.275 |  | > 100 | 3.65 |  | 4.58 | 2.83 |  |  |  |  |  |  |  | 
8 | CC/C(=C/OC)P1(=O)OC(C)(C)CN1C(C)(C)C (stereo not drawn) | > 100 | > 100 | > 100 |  |  | > 100 | > 100 | > 100 | > 100 | > 100 | > 100 |  |  |  |  |  |  | 
9 | NC(=S)Nc1nnc(-c2ccc(-c3nnc(NC(N)=S)o3)cc2)o1 | > 100 | > 100 | > 100 | > 100 | > 100 | > 100 | > 100 | > 100 | > 100 | > 100 |  |  |  |  |  |  |  | 
10 | O=C(/C=C(\O)C(=O)O)/C=C(\O)c1ccccc1Cl | > 100 | > 100 | > 100 | > 100 | > 100 | > 100 | > 100 | > 100 | > 100 | > 100 |  |  |  |  |  |  |  | 
11 | COc1cc(/C=C2\CCC(C)c3c2nc(N)c(C#N)c3-c2cc(OC)c(OC)c(OC)c2)cc(OC)c1OC (stereo not drawn) | > 100 | > 100 | > 100 |  | 15 | > 100 | 40.3 | > 100 | > 100 | > 100 | > 100 |  |  |  |  |  |  | 
12 | CC(C)C1=CC(=O)C(C)(C2=NC(C)(C)CO2)c2ccccc21 (stereo not drawn) | > 100 | > 100 | > 100 | > 100 | > 100 | > 100 | > 100 | > 100 |  | > 100 |  |  |  |  |  |  |  | 
13 | Cc1cccc(NC(=O)CSc2nnc(Cc3ccccc3)o2)c1 | > 100 | > 100 | > 100 | > 100 | > 100 | > 100 | > 100 | > 100 | > 100 | > 100 |  |  |  |  |  |  |  | 
14 | Cc1c(C(=O)Nc2ccc(Cl)c(C(F)(F)F)c2)oc2cc(O)ccc2/c1=N\NC(N)=S | > 100 | > 100 | > 100 | > 100 | > 100 | > 100 | > 100 | > 100 | > 100 | > 100 |  |  |  |  |  |  |  | 
15 | Cc1nc(Nc2ccccc2)sc1C(=O)NNC(N)=O |  | > 100 | > 100 | > 100 | 80.7 | > 100 | > 100 | > 100 | > 100 | > 100 |  |  |  |  |  |  |  | 
16 | C=CCNC(NCC=C)=C(C(Cl)=C(Cl)Cl)[N+](=O)[O-] | > 100 | > 100 |  |  | > 100 | 55.7 | 31.2 | > 100 | > 100 |  | > 100 |  |  |  |  |  |  | 
17 | O=C(O/N=C1/CCC/C1=C\c1ccccc1)c1ccccc1 | > 100 | > 100 | > 100 | > 100 | > 100 | > 100 | > 100 | > 100 | > 100 | > 100 |  |  |  |  |  |  |  | 
18 | COCC1OCCN1C (stereo not drawn) | > 100 | > 100 | > 100 | > 100 | > 100 | > 100 | > 100 | > 100 | > 100 | > 100 |  |  |  |  |  |  |  | 
19 | Cc1ccc(C2=NN(C)COC2C(F)(F)F)cc1 (stereo not drawn) | > 100 | > 100 |  | > 100 | > 100 | > 100 | > 100 | > 100 |  | > 100 |  |  |  |  |  |  |  | 
20 | CO[C@H]1C[C@@H]2CC[C@@H](C)[C@@](O)(O2)C(=O)C(=O)N2CCCC[C@H]2C(=O)O[C@H]([C@H](C)C[C@@H]2CC[C@@H](OC(=O)C(C)(CO)CO)[C@H](OC)C2)CC(=O)[C@H](C)/C=C(\C)[C@@H](O)[C@@H](OC)C(=O)[C@H](C)C[C@H](C)/C=C/C=C/C=C/1C | > 100 | > 47.4 |  | > 49.6 | 24.4 | > 100 | > 86.4 | > 100 |  | > 100 | > 100 | 0.182 | 0.359 | 0.0379 | 0.121 | < 0.0143 | 0.95 | 1.87
21 | [N-]=[N+]=Nc1cc(=O)n(-c2ccccc2)c(=O)n1-c1ccccc1 | > 100 | > 100 | > 100 | > 100 | > 100 | > 100 | > 100 | > 100 |  | > 100 |  |  |  |  |  |  |  | 
